Values joined by “and” are separate entries in the source; they are usually repeats but may differ in a detail not shown here. Identical values can stand only once. Like-named read-outs stand apart in the source and are kept apart here.
Legend:
C57Bl/6 mice = test: Mouse 24 h novel object recognition; type: in vivo
Method: The procedure followed a 3 day protocol. On day 1 (habituation) individual mice were habituated to the testing chamber (a white PVC box 48 cm long x 38 cm wide x 20 cm high with brown linoleum flooring) for 15 min then returned to their home cage. On day 2 (training) individual mice were returned to the testing chamber containing 2 identical objects and allowed to explore. The training session lasted for up to 15 min or until the mouse explored the objects for a total of 60 s. A maximal trial duration of 15 min was used to accommodate mice that are slower to initiate exploration. On day 3 (testing) individual mice were returned to the testing chamber 24 h later containing 1 familiar object encountered in the previous training session and one novel object. The testing session lasted up to 10 min or until the mouse explored the objects for a total of 60 s. The objects used for these studies were made of duplex legos approximately 3 inches high x 1 inch wide; one object was a multicolored rectangle and the second object was a solid color rectangle with a short arm attached. The location of the objects was counterbalanced between animals but was consistent within animals so that only the object itself was novel on the test session. The familiar object used during the test session was the same object used during training and all objects were thoroughly cleaned between sessions and between subjects. Animal behavior was video recorded during both training and testing and the amount of time spent exploring the objects determined using Cleversys software. Object exploration was only scored when the animal’s nose was within 1 cm of the object. […] The vehicle was chosen for sc dosing to ensure that BMS-933043 was dosed as a solution and not a suspension. […] For each subject the % discrimination index (DI) was calculated for both the training and test session as follows: %DI training = (time exploring object 1—time exploring object 2)/(total time exploring object 1 + object 2) X 100; %DI testing = (time exploring novel object—time exploring familiar object)/(total time exploring novel + familiar object) X 100.

α7 nAChR = target: T1, α7 nAChR (Mus musculus, UniProt P49582); test: Ex vivo α7 nAChR occupancy ([3H]-A-585539); type: in vivo
T1 construct: One forebrain hemisphere from each animal was thawed and homogenized in assay buffer; from tissue; host or cells: forebrain homogenate of dosed male C57Bl/6 mice
Method: Occupancy determinations were made either on completion of behavioral testing or in satellite groups of animals dosed in parallel with behavioral testing. At specified time points after dosing, the forebrain (for occupancy), the remaining hindbrain (for brain drug exposure) and plasma were collected, frozen in chilled isopentane and stored at -80°C until assayed. […] Homogenized tissue aliquots were frozen immediately and stored at -80°C. […] The filters were washed with ice-cold assay buffer, punched into a clear plate and 200 μl scintillation fluid added per well. Bound radioactivity was measured using a Wallac Microbeta liquid scintillation counter. Specific binding was calculated by subtracting the value of the non-specific binding from that of the total binding in each sample. The percent occupancy was calculated as [1 –(specific binding in drug treated mice/specific binding in vehicle treated mice)] x 100.

[1] = Plasma and brain concentrations after dosing; type: in vivo, rat; settings: for concentration at 150 min / concentration at 30 min: brain, read-out: Brain Mean ± SD; for concentration at 150 min / Kp at 150 min: oral; for concentration at 30 min / Kp at 30 min: sc
Method: At specified time points after dosing, the forebrain (for occupancy), the remaining hindbrain (for brain drug exposure) and plasma were collected, frozen in chilled isopentane and stored at -80°C until assayed.
In brief, 50 μL of the plasma sample was extracted by protein precipitation with 150 μL acetonitrile containing an internal standard and 5 μL of supernatant injected into the LC-MS/MS system. Analytes were separated by reversed phase chromatography and detection of each analyte was achieved through selected reaction monitoring mode of mass spectrometry.

T1 sequence (P49582 23-502): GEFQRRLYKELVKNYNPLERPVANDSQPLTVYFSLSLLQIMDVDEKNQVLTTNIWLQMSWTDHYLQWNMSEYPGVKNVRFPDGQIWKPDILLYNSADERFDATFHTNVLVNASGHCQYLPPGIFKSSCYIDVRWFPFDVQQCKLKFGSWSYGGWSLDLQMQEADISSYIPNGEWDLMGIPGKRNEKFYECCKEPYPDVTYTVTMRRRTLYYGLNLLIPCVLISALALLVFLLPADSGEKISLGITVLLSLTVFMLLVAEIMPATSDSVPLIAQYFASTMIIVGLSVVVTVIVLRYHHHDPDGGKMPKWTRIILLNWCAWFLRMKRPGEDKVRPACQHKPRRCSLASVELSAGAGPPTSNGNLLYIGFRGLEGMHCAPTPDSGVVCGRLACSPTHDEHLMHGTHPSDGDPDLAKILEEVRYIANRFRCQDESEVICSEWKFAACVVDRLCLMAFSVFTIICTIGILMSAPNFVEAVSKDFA

Compound: c1cn(-c2cc(NC3=NC[C@@]4(CN5CCC4CC5)O3)ncn2)cn1 [BMS-933043, (2R)-N-(6-(1H-imidazol-1-yl)-4-pyrimidinyl)-4'H-spiro[4-azabicyclo[2.2.2]octane-2,5'-[1,3]oxazol]-2'-amine]
- total object exploration time in training or testing session (C57Bl/6 mice; mice): does not alter total object exploration time
- effective dose range, 24 h novel object recognition (C57Bl/6 mice; sc, 30 min prior to training): 0.1 to 10 mg/kg
- EC50 (α7 nAChR): 1900 nM
- % ex vivo α7 nAChR occupancy (α7 nAChR; 0.3 mg/kg sc, 30 min, individual mice): 11.2% and -5.2% and 7.5% and -6.3%
- % ex vivo α7 nAChR occupancy (α7 nAChR; 1 mg/kg sc, 30 min): 18.3% and 25.5% and 25.4% and ~ 20%
- % ex vivo α7 nAChR occupancy (α7 nAChR; 3 mg/kg sc, 30 min, individual mice): 56.2% and 44.9% and 45.1%
- % ex vivo α7 nAChR occupancy (α7 nAChR; 10 mg/kg sc, 30 min): 76.4% and 74.8% and 75.4% and > 75%
- % ex vivo α7 nAChR occupancy (α7 nAChR; 100 mg/kg sc, 30 min, individual mice): 93.3% and 94.1% and 92.1%
- receptor occupancy at 1 mg/kg (α7 nAChR; mouse, sc, read-out: % ex vivo α7 nAChR occupancy, 1 mg/kg sc, 30 min): 23.9%
- receptor occupancy at 3 mg/kg (α7 nAChR; mouse, sc, read-out: % ex vivo α7 nAChR occupancy, 3 mg/kg sc, 30 min, individual mice): 41.3%
- receptor occupancy at 10 mg/kg (α7 nAChR; mouse, sc, read-out: % ex vivo α7 nAChR occupancy, 10 mg/kg sc, 30 min): 78.5%
- receptor occupancy at 100 mg/kg (α7 nAChR; mouse, sc, read-out: % ex vivo α7 nAChR occupancy, 100 mg/kg sc, 30 min, individual mice): 91.3%
- Brain Mean ± SD ([1]; Rat MK-801 Set Shift (0.3-3 mg/kg study), 0.30 mg/kg po, 150 min): < LLQ
- concentration at 150 min ([1]; rat, 1 mg/kg, Rat MK-801 Set Shift (0.3-3 mg/kg study), 1 mg/kg po, 150 min): 13 ± 3 nM
- concentration at 150 min ([1]; rat, 3 mg/kg, Rat MK-801 Set Shift (0.3-3 mg/kg study), 3 mg/kg po, 150 min): 100 ± 39 nM
- concentration at 150 min ([1]; rat, 3 mg/kg, Rat MK-801 Set Shift (3-30 mg/kg study), 3 mg/kg po, 150 min): 132 ± 17 nM
- concentration at 150 min ([1]; rat, 10 mg/kg, Rat MK-801 Set Shift (3-30 mg/kg study), 10 mg/kg po, 150 min): 533 ± 111 nM
- concentration at 150 min ([1]; rat, 30 mg/kg, Rat MK-801 Set Shift (3-30 mg/kg study), 30 mg/kg po, 150 min): 2220 nM
- concentration at 30 min ([1]; rat, 0.03 mg/kg, Rat MMN, 0.03 mg/kg sc): 13 nM
- concentration at 30 min ([1]; rat, 0.3 mg/kg, Rat MMN, 0.30 mg/kg sc): 13 ± 0.65 nM
- concentration at 30 min ([1]; rat, 0.3 mg/kg, Rat N40 Gating, 0.30 mg/kg sc): 21 ± 6 nM
- concentration at 30 min ([1]; rat, 0.56 mg/kg, Rat N40 Gating, 0.56 mg/kg sc): 42 ± 10 nM
- concentration at 30 min ([1]; rat, 1 mg/kg, Rat MMN, 1 mg/kg sc): 74 ± 18 nM
- concentration at 30 min ([1]; rat, 1 mg/kg, Rat N40 Gating, 1 mg/kg sc): 97 ± 14 nM
- concentration at 30 min ([1]; rat, 3 mg/kg, Rat MMN, 3 mg/kg sc): 378 ± 161 nM
- concentration at 30 min ([1]; rat, 3 mg/kg, Rat N40 Gating, 3 mg/kg sc): 372 ± 33 nM
- Kp at 150 min ([1]; rat, brain/plasma, 1 mg/kg, Rat MK-801 Set Shift (0.3-3 mg/kg study), 1 mg/kg po, 150 min): 0.25
- Kp at 150 min ([1]; rat, brain/plasma, 3 mg/kg, Rat MK-801 Set Shift (0.3-3 mg/kg study), 3 mg/kg po, 150 min): 0.24
- Kp at 150 min ([1]; rat, brain/plasma, 3 mg/kg, Rat MK-801 Set Shift (3-30 mg/kg study), 3 mg/kg po, 150 min): 0.29
- Kp at 150 min ([1]; rat, brain/plasma, 10 mg/kg, Rat MK-801 Set Shift (3-30 mg/kg study), 10 mg/kg po, 150 min): 0.29
- Kp at 150 min ([1]; rat, brain/plasma, 30 mg/kg, Rat MK-801 Set Shift (3-30 mg/kg study), 30 mg/kg po, 150 min): 0.31
- Kp ([1]; rat, brain/plasma, other: subcutaneous or oral (pooled over all rat studies), rats): 0.28
- Kp at 30 min ([1]; rat, brain/plasma, 0.03 mg/kg, Rat MMN, 0.03 mg/kg sc): 0.57
- Kp at 30 min ([1]; rat, brain/plasma, 0.3 mg/kg, Rat MMN, 0.30 mg/kg sc): 0.17
